Data: ChEMBL document CHEMBL1201862, “PubChem BioAssay data set” (2004)
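Cultured in 96-well plates, cells were exposed to test compound for 48 hours across five concentrations. Here, GI50 denotes the concentration required for 50% inhibition of growth.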 Calls of active or inactive are those of the source. No stated cut-off is given here; in the data, active = GI50 up to about 1.1 µM and inactive = higher.

Key:
Assay in all cases: growth of human tumour cells (NCI), 48 h
DMS-114 = test system: DMS-114
SF-539 = test system: SF-539
CAKI-1 = test system: CAKI-1
IGROV-1 = test system: IGROV-1
DLD-1 = test system: DLD-1
NCI-H460 = test system: NCI-H460
HCT-116 = test system: HCT-116
HCT-15 = test system: HCT-15
HT-29 = test system: HT-29
U-251 = test system: U-251
CCRF-CEM = test system: CCRF-CEM
SNB-75 = test system: SNB-75
TK-10 = test system: TK-10
HOP-92 = test system: HOP-92
NCI-H23 = test system: NCI-H23
RXF 631 = test system: RXF 631
COLO 205 = test system: COLO 205
XF498 = test system: XF498
SF-268 = test system: SF-268
A549 = test system: A549
OVCAR-3 = test system: OVCAR-3
OVCAR-8 = test system: OVCAR-8
SF-295 = test system: SF-295
HL-60 = test system: HL-60
SN12C = test system: SN12C
OVCAR-5 = test system: OVCAR-5
UACC-257 = test system: UACC-257
SK-MEL-5 = test system: SK-MEL-5
HCC 2998 = test system: HCC 2998
UACC-62 = test system: UACC-62
KM12 = test system: KM12
K562 = test system: K562
MOLT-4 = test system: MOLT-4
DMS-273 = test system: DMS-273
Malme-3M = test system: Malme-3M
UO-31 = test system: UO-31
SK-OV-3 = test system: SK-OV-3
A498 = test system: A498
SNB-19 = test system: SNB-19
M14 = test system: M14
SK-MEL-28 = test system: SK-MEL-28
KM-20L2 = test system: KM-20L2
NCI-H226 = test system: NCI-H226
RPMI-8226 = test system: RPMI-8226
HOP-62 = test system: HOP-62
M19-MEL = test system: M19-MEL
786-0 = test system: 786-0
SK-MEL-2 = test system: SK-MEL-2
RXF 393 = test system: RXF 393
OVCAR-4 = test system: OVCAR-4
EKVX = test system: EKVX
SNB-78 = test system: SNB-78
NCI-H522 = test system: NCI-H522
LOX IMVI = test system: LOX IMVI
LXFL 529 = test system: LXFL 529

## Cc1cc(NS(=O)(=O)c2ccc(Nc3c4ccccc4nc4c(C(=O)N5CCN(CCO)CC5)ccc(Cl)c34)cc2)no1
DMS-114
  GI50: > 100 µM (inactive)
SF-539
  GI50: > 100 µM (inactive)
CAKI-1
  GI50: > 100 µM (inactive)
IGROV-1
  GI50: 96.2 µM (inactive)
DLD-1
  GI50: 52.5 µM (inactive)
NCI-H460
  GI50: > 100 µM (inactive)
HCT-116
  GI50: > 100 µM (inactive)
HCT-15
  GI50: > 100 µM
HT-29
  GI50: > 100 µM (inactive)
U-251
  GI50: > 100 µM (inactive)
CCRF-CEM
  GI50: 28.8 µM (inactive)
SNB-75
  GI50: 29.6 µM (inactive)
TK-10
  GI50: > 100 µM (inactive)
HOP-92
  GI50: > 100 µM (inactive)
NCI-H23
  GI50: > 100 µM (inactive)
RXF 631
  GI50: 83.9 µM (inactive)
COLO 205
  GI50: > 100 µM (inactive)
XF498
  GI50: > 100 µM (inactive)
SF-268
  GI50: 98.9 µM (inactive)
A549
  GI50: > 100 µM (inactive)
OVCAR-3
  GI50: > 100 µM (inactive)
OVCAR-8
  GI50: > 100 µM (inactive)
SF-295
  GI50: > 100 µM (inactive)
HL-60
  GI50: 60.3 µM (inactive)
SN12C
  GI50: 72.1 µM (inactive)
OVCAR-5
  GI50: > 100 µM (inactive)
UACC-257
  GI50: > 100 µM (inactive)
SK-MEL-5
  GI50: 36.3 µM (inactive)
HCC 2998
  GI50: 71.8 µM (inactive)
UACC-62
  GI50: 42.5 µM (inactive)
KM12
  GI50: > 100 µM (inactive)
K562
  GI50: 48.4 µM (inactive)
MOLT-4
  GI50: 36.3 µM (inactive)
DMS-273
  GI50: > 100 µM (inactive)
Malme-3M
  GI50: > 100 µM (inactive)
UO-31
  GI50: > 100 µM (inactive)
SK-OV-3
  GI50: > 100 µM (inactive)
A498
  GI50: > 100 µM (inactive)
SNB-19
  GI50: > 100 µM (inactive)
M14
  GI50: > 100 µM (inactive)
SK-MEL-28
  GI50: > 100 µM (inactive)
KM-20L2
  GI50: > 100 µM (inactive)
NCI-H226
  GI50: > 100 µM (inactive)
RPMI-8226
  GI50: 70.1 µM (inactive)
HOP-62
  GI50: > 100 µM (inactive)
M19-MEL
  GI50: > 100 µM (inactive)
786-0
  GI50: > 100 µM (inactive)
SK-MEL-2
  GI50: 42.1 µM (inactive)
RXF 393
  GI50: > 100 µM (inactive)
OVCAR-4
  GI50: > 100 µM (inactive)

## O=S(O)CCCCCSSc1ccc(Cl)cc1
SF-539
  GI50: 16 µM (inactive)
EKVX
  GI50: 39.1 µM (inactive)
SNB-78
  GI50: 23.5 µM (inactive)
DLD-1
  GI50: 21.5 µM (inactive)
NCI-H460
  GI50: 36.9 µM (inactive)
HCT-116
  GI50: 25.2 µM (inactive)
HT-29
  GI50: 26.6 µM (inactive)
NCI-H522
  GI50: 14.9 µM (inactive)
U-251
  GI50: 10.1 µM (inactive)
CCRF-CEM
  GI50: 4.49 µM (inactive)
SNB-75
  GI50: 23.1 µM (inactive)
LOX IMVI
  GI50: 16.4 µM (inactive)
TK-10
  GI50: 23.2 µM (inactive)
NCI-H23
  GI50: 19.8 µM (inactive)
RXF 631
  GI50: 18.9 µM (inactive)
XF498
  GI50: 13.7 µM (inactive)
SF-268
  GI50: 10.7 µM (inactive)
OVCAR-3
  GI50: 15.6 µM (inactive)
HL-60
  GI50: 27.2 µM (inactive)
SN12C
  GI50: 16 µM (inactive)
OVCAR-5
  GI50: 21.1 µM (inactive)
UACC-257
  GI50: 22.5 µM (inactive)
HCC 2998
  GI50: 25.9 µM (inactive)
KM12
  GI50: 20.7 µM (inactive)
K562
  GI50: > 100 µM (inactive)
Malme-3M
  GI50: 23 µM (inactive)
UO-31
  GI50: 12.9 µM (inactive)
LXFL 529
  GI50: 13.7 µM (inactive)
SK-OV-3
  GI50: 56 µM (inactive)
A498
  GI50: 17 µM (inactive)
SNB-19
  GI50: 28 µM (inactive)
M14
  GI50: 22.7 µM (inactive)
SK-MEL-28
  GI50: 21.6 µM (inactive)
HOP-62
  GI50: 22.4 µM (inactive)
M19-MEL
  GI50: 28.4 µM (inactive)
SK-MEL-2
  GI50: 15.2 µM (inactive)
RXF 393
  GI50: 13.8 µM (inactive)
OVCAR-4
  GI50: 28.7 µM (inactive)
